{"source": "patent US20120046457A1", "about": "“PREPARATION OF DECITABINE” (DR. REDDY'S LABORATORIES, INC., priority 2009, published 2012)", "key": {"[1]": {"details": "cited from earlier work"}, "[2]": {"assay": "Storage stability of packaged anhydrous crystalline decitabine (TGA weight loss)", "format": "physicochemical", "details": "40±2° C., relative humidity 75±5%, described packaging", "procedure": "Thermogravimetric analyses reported herein for decitabine were carried out using a SHIMADZU, DTG-60, Thermogravimetric Analyzer with a ramp of 10° C./minute up to 250° C.\nIn embodiments, the present application provides a storage system for decitabine. A storage system of the present application comprises at least one sealed polymeric bag, (e.g., a transparent or opaque polyethylene bag having a thickness of about 0.1 mm to about 0.5 mm) or a combination of such bags, which, if desired, may be sealed inside a laminated aluminum bag. An oxygen absorbent and a moisture absorbent (or desiccant), may be included between one or more of such bags. Finally, the packaged material is stored in sealed HDPE containers.\nAnhydrous crystalline decitabine with an initial XRD pattern substantially in accordance with FIG. 4 remains stable for a period at least about 4 months, or about 6 months, when stored at 40±2° C. and a relative humidity of 75±5% under the packaging conditions described above. The TGA weight losses of representative samples stored under these conditions are tabulated below."}, "[3]": {"assay": "Hygroscopicity of decitabine (hygroscopic stability)", "format": "physicochemical", "details": "for Moisture (Wt. %): room temperature", "procedure": "Decitabine obtained from Example 10 is tested for hygroscopic stability. Samples are analyzed as initially prepared, and at intervals after 1 day and 7 days of storage at room temperature; the results are tabulated below."}}}
{"compound": "Nc1ncn([C@H]2C[C@H](O)[C@@H](CO)O2)c(=O)n1", "note": "[Decitabine monohydrate]", "values": [{"measurement": "stability", "setting": "[1]; room temperature", "result": "stable"}]}
{"compound": "Nc1ncn([C@H]2C[C@H](O)[C@@H](CO)O2)c(=O)n1", "note": "[Decitabine, 4-amino-1-(2-deoxy-β-D-erythropentofuranosyl)-1,3,5-triazin-2(1H)-one]", "values": [{"measurement": "period for which it remains stable", "setting": "[2]", "result": "at least 4 months"}, {"measurement": "TGA Weight Loss (%)", "setting": "[2]; storage time 1 month", "result": 0.07, "unit": "%"}, {"measurement": "TGA Weight Loss (%)", "setting": "[2]; storage time 2 months", "result": 0.15, "unit": "%"}, {"measurement": "TGA Weight Loss (%)", "setting": "[2]; storage time 3 months", "result": 0.26, "unit": "%"}, {"measurement": "TGA Weight Loss (%)", "setting": "[2]; storage time 4 months", "result": 0.16, "unit": "%"}, {"measurement": "moisture at equilibrium", "setting": "[1]; exposed to humidity, monohydrate formed", "result": 7, "unit": "%"}, {"measurement": "Moisture (Wt. %)", "setting": "[3]; 40-50% RH, 1 day", "result": 6.63, "unit": "Wt. %"}, {"measurement": "Moisture (Wt. %)", "setting": "[3]; 40-50% RH, 7 days", "result": 7.12, "unit": "Wt. %"}, {"measurement": "Moisture (Wt. %)", "setting": "[3]; 40-50% RH, initial", "result": 0.18, "unit": "Wt. %"}, {"measurement": "Moisture (Wt. %)", "setting": "[3]; 90% RH, 1 day", "result": 5.46, "unit": "Wt. %"}, {"measurement": "Moisture (Wt. %)", "setting": "[3]; 90% RH, 7 days", "result": 7.17, "unit": "Wt. %"}, {"measurement": "Moisture (Wt. %)", "setting": "[3]; 90% RH, initial", "result": 0.18, "unit": "Wt. %"}, {"measurement": "moisture content acquired", "setting": "[3]; exposed to the atmosphere", "result": "up to 1 mole"}, {"measurement": "solid form after moisture uptake", "setting": "[3]; exposed to the atmosphere", "result": "change to a monohydrate form"}]}
